Assay results reported in patent US12611442B2, “mRNA encoding engineered CFTR” (Translate Bio, Inc., priority 2019, dated 2026).

Assays:
Format in all cases: cell-based
FRT cells [1] = test: Time-course Ussing chamber assay (duration of activity, 22 and 44 hours); details: at 44 hours (measured at 22 and 44 hours); FIG. 14A, 14B
Experimental: In this example, duration of activity of various phosphomimetic CFTR mutants were tested in combination with the K14R mutation using a time-course Ussing chamber assay as described in Example 3.
Activity of various CFTR proteins listed in Table 12 were measured at 22 and 44 hours. Short-circuit current (Isc), the movement of ions as measured in the Ussing chamber from active transport, was plotted for each CFTR protein at 22 and 44 hours.

HEK293 cells = test: CFTR protein expression by protein gel / Western blot (C band); details: for C-band expression (quantification of Western blot): FIG. 11A, 11B; for expression in the C band (mature complex glycosylated CFTR): HEK293 lysates, FIG. 18A-18C
Experimental: The CFTR band is depicted by an arrow (FIG. 3A).
To examine the expression of CFTR mutants, expression of the wild-type CFTR, 15E, 13E, and E1371Q mutants was quantified as shown in FIG. 11A and FIG. 11B.
Studies were also performed to assess in vitro translation and tolerability of CFTR mutants. […] The “C band” refers to mature complex glycosylated form of CFTR.

FRT cells [2] = test: Ussing chamber assay: short-circuit current (chloride ion transport) of cells transfected with WT or engineered CFTR mRNA; sequential forskolin, VX-770, CFTRinh-172
Experimental: Chloride ion transport was measured by an Ussing chamber. This assay provides an indication of chloride flux based on the principle that the epithelium pumps ions from one side to another and ions leak back through tight junctions situated between epithelial cells. The voltage difference between two sides of the epithelium is measured using two voltage electrodes placed near the tissue/epithelium. The voltage is cancelled out by injecting current, using two other electrodes placed away from the epithelium. The short circuit current is measured as net chloride ion transport.
Traces show short-circuit current measurements during sequential additions of forskolin, an activator of CFTR-mediated chloride secretion, and VX-770 (ivacaftor), a potentiator compound that directly increases phosphorylation-dependent CFTR channel opening on amphotericin B-permeabilized membranes. CFTR proteins A-D responded to forskolin activation resulting in increased chloride ion conductance. Forskolin activation was not observed for CFTR Protein E, the ATP hydrolysis deficient E1371Q mutant. Further addition of VX-770 increased conductance in CFTR Proteins B-D.
In this example, activation of various engineered CFTR protein mutants (proteins B-E, discussed above) were compared with the activation of wild type CFTR (protein A) using the Ussing assay as described in Example 3. In this example the engineered CFTR protein activity was tested at a low concentration of 0.35 μg (FIG. 4).
In this example, activities of various engineered phosphomimetic CFTR protein mutants (Table. 9) were compared with the activity of wild-type CFTR using the Ussing chamber assay as described in Example 3.

[3] = HEK293 cells, versus wild-type CFTR
[4] = 0.35 μg (low concentration), FRT cells, FIG. 4

## 13E: S422E, S660E, S670E, S686E, T690E, S700E, S712E, S753E, T787E, T788E, T790E, S795E, S813E (codon optimized: SEQ ID NO: 52)
FRT cells [1]
  remaining activity (short-circuit current, Isc): highest remaining activity at 44 hours
HEK293 cells; [3]
  C-band expression (quantification of Western blot): increased C-band expression
HEK293 cells; HEK293 cells, versus wild-type CFTR, FIG. 11B
  increase in protein (C-band, quantification of Western blot): greater than 2 fold
HEK293 cells
  expression in the C band (mature complex glycosylated CFTR): increased expression in the C band
FRT cells [2]; 13 or 15 R-domain substitutions, FRT cells, FIG. 9A, 9B, 11E
  CFTR activity, glutamate (E) versus aspartate (D) substitutions: greater CFTR activity
FRT cells [2]; FIG. 14C
  effect of additional K14R substitution on chloride conductance of the named protein: no effect
FRT cells [2]; maximum activated current, FRT cells, FIG. 11C, 11D
  change in activity when K14R mutation is combined with the named phosphomimetic mutant: no significant increase in the activity

## 15E/K14R: K14R plus the 15E substitutions (codon optimized: SEQ ID NO: 51)
FRT cells [1]
  remaining activity (short-circuit current, Isc): highest remaining activity at 44 hours

## E1371Q/K14R: E1371Q plus K14R (codon optimized: SEQ ID NO: 49)
FRT cells [1]
  remaining activity (short-circuit current, Isc): high remaining activity at 44 hours
HEK293 cells; FIG. 13B
  expression compared to wild-type CFTR and to E1371Q-only CFTR: increased expression
HEK293 cells
  expression in the C band (mature complex glycosylated CFTR): increased expression in the C band
FRT cells [2]; FRT cells, FIG. 13A, 13B
  activity compared to wild-type CFTR and to E1371Q-only CFTR: increased activity

B1: CFTR Protein E: E1371Q, ATP hydrolysis deficient (SEQ ID NO: 44, 48) (nucleic acid)
DNA: GTGCAGCCCCTGCTGCTCGGCAGAATCATCGCCTCATACGATCCAGACAACAAGGAAGAAAGAAGCATCGCCATCTACCTGGGCATTGGCCTCTGCCTCCTGTTTATTGTGCGGACTCTGCTGCTGCACCCAGCAATTTTCGGGTTGCATCATATTGGCATGCAGATGCGCATTGCTATGTTTTCCCTCATCTACAAAAAGACACTGAAACTCAGCTCCCGGGTGCTGGACAAGATCTCCATCGGCCAACTGGTGTCTCTCCTGAGCAATAACTTGAATAAGTTCGACGAAGGGCTGGCCCTGGCACACTTCGTGTGGATTGCCCCCCTGCAGGTGGCCCTGCTGATGGGACTGATTTGGGAACTGCTGCAGGCTAGCGCTTTCTGCGGCCTGGGGTTCCTGATCGTGCTGGCACTGTTTCAGGCAGGCCTGGGCCGTATGATGATGAAGTACAGAGACCAGAGGGCCGGGAAGATCTCCGAACGGCTCGTTATTACCTCTGAGATGATCGAGAACATTCAGTCTGTGAAAGCCTACTGCTGGGAGGAGGCTATGGAGAAGATGATCGAGAATCTGAGACAGACCGAGCTGAAGCTGACCAGAAAGGCCGCCTACGTGAGGTACTTCAACAGCAGTGCCTTCTTCTTCTCTGGCTTCTTCGTTGTGTTTCTGAGCGTGCTGCCATACGCTCTCATCAAAGGCATCATCCTGCGGAAGATCTTCACCACCATCAGCTTTTGCATCGTGCTTAGAATGGCCGTGACCCGGCAGTTCCCATGGGCCGTGCAAACTTGGTATGATTCCCTGGGCGCCATCAACAAAATCCAGGATTTCCTGCAGAAGCAGGAATACAAGACACTCGAATATAATCTCACAACTACTGAGGTGGTTATGGAGAACGTGACTGCCTTCTGGGAGGAGGGGTTCGGAGAGCTTTTTGAGAAGGCAAAACAGAATAACAACAACCGCAAAACCAGCAACGGCGACGACAGCCTGTTCTTCTCCAATTTTTCTCTCCTGGGAACACCCGTCCTCAAAGACATCAACTTTAAGATCGAGAGGGGACAGCTGCTCGCAGTCGCCGGATCCACAGGCGCCGGCAAGACCTCTCTGCTGATGGTTATCATGGGCGAACTGGAGCCATCCGAGGGCAAGATTAAGCACAGTGGAAGAATCTCCTTTTGTAGCCAGTTCAGTTGGATTATGCCCGGCACTATTAAGGAGAATATCATTTTTGGGGTGAGCTATGATGAGTATCGGTATCGGAGCGTTATCAAAGCCTGTCAGCTGGAGGAGGATATCAGCAAATTCGCAGAGAAGGATAATATCGTGCTGGGGGAGGGGGGAATCACCCTGAGCGGAGGCCAGAGAGCCAGAATCTCACTGGCCCGGGCCGTCTACAAGGACGCCGACCTTTACCTTCTGGACAGTCCCTTTGGATATCTGGATGTGCTGACTGAAAAGGAGATCTTCGAGTCTTGTGTGTGCAAG
HEK293 cells; [3]
  C-band expression (quantification of Western blot): increased C-band expression
FRT cells [2]; 0.35 μg (low concentration), FIG. 4
  forskolin activation: forskolin activation at a lower dose in comparison to other constructs tested
FRT cells [2]; [4]
  conductance prior to forskolin addition: significant pre-forskolin conductance
  overall activity compared to wild-type CFTR: overall increased activity
FRT cells [2]; 0.5 μg CFTR (high concentration), amphotericin B-permeabilized membranes, FIG. 3B
  response to forskolin activation (chloride ion conductance, short-circuit current): not observed
FRT cells [2]; FIG. 12A, 12B
  forskolin activation and increased activity by addition of VX-770: minimal response to VX-770
FRT cells [2]; FRT cells, FIG. 12A, 12B
  activity / conductance (short circuit current) compared to wild-type CFTR: overall higher conductance than the wild-type CFTR
FRT cells [2]; doses 0.05-0.35 μg/well, FIG. 5
  activity pattern across doses: consistent activity pattern across treatments
FRT cells [2]; short-circuit conductivity, FIG. 15C
  effect of K1218R mutation on activity of the named CFTR protein: decreases activity
